# According to patent US10266537B2, “3-acetylenyl-pyrazole-pyrimidine derivative, and preparation method therefor and uses thereof” (Si Chuan University, priority 2015, dated 2019):
# pIC50: −log10 of the molar value.
# How the values were obtained:
# [1] = tested on: transgenic FLK1-GFP fluorescent zebrafish; assay: Anti-angiogenesis activity in transgenic zebrafish; type: in vivo; conditions: FLK1 transgenic zebrafish embryos; 10, 5 and 2.5 μg/mL; compared with the control group
# Experimental: Angiogenesis inhibitory activity of the test compound is represented by the extent of inhibition vascular section between zebrafish with concentrations of 10 μg/mL, 5 μg/mL and 2.5 μg/mL. The positive control is Dasatinib, a drug in breast cancer clinical trials.
# Zebrafish Embryo Access: The zebrafish used in this experiment is a vascular fluorescence transgenic zebrafish (FLK1: GFP). The breeding and breeding of zebrafish is based on Westerfield's method. In the day before egg collection, the male and female zebrafish were paired by the ratio 1:1 a. The next day, they natural mating and spawning at a temperature of about 28° C. and sufficient light. Sufficient zebrafish embryos were collected, washed and placed in embryonic culture medium and placed in a 28° C. incubator. The use of morphological and development criteria to identify survival at any time, dead embryos were white, should be promptly removed to prevent water quality deterioration. […]
# Results observed: After zebrafish embryos fertilized 31 h, stripped shell eggs. The embryos were then placed on slides and fixed with 1.5% methylcellulose containing 1‰ of triacaine, followed by observing the count of Inter segmental vessels (ISVs) under fluorescence microscopy.
# PC-3 = assay: Cell proliferation inhibition assay (MTT); type: cell-based; conditions: Homo sapiens, 72 hours, read-out: Proliferation inhibitory activity IC50
# Experimental: (§1) The cells were seeded in 96-well plates with 200 μL of cell suspension per well and incubated overnight in a cell culture medium with a cell concentration of 1 2×10^4 cells/mL. The next day, the supernatant was discarded (the suspension cell was centrifuged before it) and the cells were treated with gradient concentrations of the test compound, respectively. […] After 72 hours, add 20 μL of MTT reagent at a concentration of 5 mg/mL per well. After incubation for 2-4 h, the supernatant was discarded and 150 μL of DMSO was added to each well. […] Relative cell proliferation inhibition rate=([MUT]-[MUT])×100%/[MUT]. The experiment was repeated at least 3 times. Experimental data were expressed as mean, data statistics using t test, P<0.05 for the difference was statistically significant.
# GRK5(h) = GRK5(h) (Homo sapiens (Human), UniProt P34947); assay: Kinase inhibition assay (KinaseProfiler, 33P-ATP); type: biochemical; conditions: read-out: The percentage of the remaining active protein
# ALK6(h) = ALK6(h) (Homo sapiens (Human), UniProt O00238); assay: Kinase inhibition assay (KinaseProfiler, 33P-ATP); type: biochemical; conditions: read-out: The percentage of the remaining active protein
# Abl (M351T)(h) = Abl (M351T)(h) (Homo sapiens (Human), UniProt P00519, M351T); assay: Kinase inhibition assay (KinaseProfiler, 33P-ATP); type: biochemical; conditions: read-out: The percentage of the remaining active protein
# GRK7(h) = GRK7(h) (Homo sapiens (Human), UniProt Q8WTQ7); assay: Kinase inhibition assay (KinaseProfiler, 33P-ATP); type: biochemical; conditions: read-out: The percentage of the remaining active protein
# PANC-1 = assay: Cell proliferation inhibition assay (MTT); type: cell-based; conditions: Homo sapiens, 72 hours, read-out: Proliferation inhibitory activity IC50
# Experimental: as §1
# Flt1 = Flt1 (Homo sapiens (Human), UniProt P17948); assay: Kinase inhibition assay (KinaseProfiler, 33P-ATP); type: biochemical
# FGFR2 = FGFR2 (Homo sapiens (Human), UniProt P21802); assay: Kinase inhibition assay (KinaseProfiler, 33P-ATP); type: biochemical
# EphB1 = EphB1 (Homo sapiens (Human), UniProt P54762); assay: Kinase inhibition assay (KinaseProfiler, 33P-ATP); type: biochemical; conditions: EphB1(h), read-out: The percentage of the remaining active protein
# DYRK1B(h) = DYRK1B(h) (Homo sapiens (Human), UniProt Q9Y463); assay: Kinase inhibition assay (KinaseProfiler, 33P-ATP); type: biochemical; conditions: read-out: The percentage of the remaining active protein
# EGFR(L861Q)(h) = EGFR(L861Q)(h) (Homo sapiens (Human), UniProt P00533, L861Q); assay: Kinase inhibition assay (KinaseProfiler, 33P-ATP); type: biochemical; conditions: read-out: The percentage of the remaining active protein
# CaMKIIβ(h) = CaMKIIβ(h) (Homo sapiens (Human), UniProt Q13554); assay: Kinase inhibition assay (KinaseProfiler, 33P-ATP); type: biochemical; conditions: read-out: The percentage of the remaining active protein
# MST3(h) = MST3(h) (Homo sapiens (Human), UniProt Q9Y6E0); assay: Kinase inhibition assay (KinaseProfiler, 33P-ATP); type: biochemical; conditions: read-out: The percentage of the remaining active protein
# VRK2(h) = VRK2(h) (Homo sapiens (Human), UniProt Q86Y07); assay: Kinase inhibition assay (KinaseProfiler, 33P-ATP); type: biochemical; conditions: read-out: The percentage of the remaining active protein
# CLK3(h) = CLK3(h) (Homo sapiens (Human), UniProt P49761); assay: Kinase inhibition assay (KinaseProfiler, 33P-ATP); type: biochemical; conditions: read-out: The percentage of the remaining active protein
# Abl (H396P)(h) = Abl (H396P)(h) (Homo sapiens (Human), UniProt P00519, H396P); assay: Kinase inhibition assay (KinaseProfiler, 33P-ATP); type: biochemical; conditions: read-out: The percentage of the remaining active protein
# LIMK1 = LIMK1 (Homo sapiens (Human), UniProt P53667); assay: biochemical; conditions: read-out: The percentage of the remaining active protein
# HIPK1(h) = HIPK1(h) (Homo sapiens (Human), UniProt Q86Z02); assay: Kinase inhibition assay (KinaseProfiler, 33P-ATP); type: biochemical; conditions: read-out: The percentage of the remaining active protein
# PrKX(h) = PrKX(h) (Homo sapiens (Human), UniProt P51817); assay: Kinase inhibition assay (KinaseProfiler, 33P-ATP); type: biochemical; conditions: read-out: The percentage of the remaining active protein
# ZR-75-1 = assay: Cell proliferation inhibition assay (MTT); type: cell-based; conditions: Homo sapiens, 72 hours, read-out: Proliferation inhibitory activity IC50
# Experimental: as §1
# DCAMKL3(h) = DCAMKL3(h) (Homo sapiens (Human), UniProt Q9C098); assay: Kinase inhibition assay (KinaseProfiler, 33P-ATP); type: biochemical; conditions: read-out: The percentage of the remaining active protein
# ALK4(h) = ALK4(h) (Homo sapiens (Human), UniProt P36896); assay: Kinase inhibition assay (KinaseProfiler, 33P-ATP); type: biochemical; conditions: read-out: The percentage of the remaining active protein
# PTK5 = PTK5 (Homo sapiens (Human), UniProt P42685); assay: Kinase inhibition assay (KinaseProfiler, 33P-ATP); conditions: read-out: The percentage of the remaining active protein
# PRAK(h) = PRAK(h) (Homo sapiens (Human), UniProt Q8IW41); assay: Kinase inhibition assay (KinaseProfiler, 33P-ATP); type: biochemical; conditions: read-out: The percentage of the remaining active protein
# Fgr = Fgr (Homo sapiens (Human), UniProt P09769); assay: Kinase inhibition assay (KinaseProfiler, 33P-ATP); type: biochemical; conditions: Fgr(h), read-out: The percentage of the remaining active protein
# PI3KC2a(h) = PI3KC2a(h) (Homo sapiens (Human), UniProt O00443); assay: Kinase inhibition assay (KinaseProfiler, 33P-ATP); type: biochemical; conditions: read-out: The percentage of the remaining active protein
# ROCK-II(r) = ROCK-II(r) (Rattus norvegicus (Rat), UniProt Q62868); assay: Kinase inhibition assay (KinaseProfiler, 33P-ATP); type: biochemical; conditions: read-out: The percentage of the remaining active protein
# Abl(Y253F)(h) = Abl(Y253F)(h) (Homo sapiens (Human), UniProt P00519, Y253F); assay: Kinase inhibition assay (KinaseProfiler, 33P-ATP); type: biochemical; conditions: read-out: The percentage of the remaining active protein
# Chain of FGFR2 (P21802 22-821): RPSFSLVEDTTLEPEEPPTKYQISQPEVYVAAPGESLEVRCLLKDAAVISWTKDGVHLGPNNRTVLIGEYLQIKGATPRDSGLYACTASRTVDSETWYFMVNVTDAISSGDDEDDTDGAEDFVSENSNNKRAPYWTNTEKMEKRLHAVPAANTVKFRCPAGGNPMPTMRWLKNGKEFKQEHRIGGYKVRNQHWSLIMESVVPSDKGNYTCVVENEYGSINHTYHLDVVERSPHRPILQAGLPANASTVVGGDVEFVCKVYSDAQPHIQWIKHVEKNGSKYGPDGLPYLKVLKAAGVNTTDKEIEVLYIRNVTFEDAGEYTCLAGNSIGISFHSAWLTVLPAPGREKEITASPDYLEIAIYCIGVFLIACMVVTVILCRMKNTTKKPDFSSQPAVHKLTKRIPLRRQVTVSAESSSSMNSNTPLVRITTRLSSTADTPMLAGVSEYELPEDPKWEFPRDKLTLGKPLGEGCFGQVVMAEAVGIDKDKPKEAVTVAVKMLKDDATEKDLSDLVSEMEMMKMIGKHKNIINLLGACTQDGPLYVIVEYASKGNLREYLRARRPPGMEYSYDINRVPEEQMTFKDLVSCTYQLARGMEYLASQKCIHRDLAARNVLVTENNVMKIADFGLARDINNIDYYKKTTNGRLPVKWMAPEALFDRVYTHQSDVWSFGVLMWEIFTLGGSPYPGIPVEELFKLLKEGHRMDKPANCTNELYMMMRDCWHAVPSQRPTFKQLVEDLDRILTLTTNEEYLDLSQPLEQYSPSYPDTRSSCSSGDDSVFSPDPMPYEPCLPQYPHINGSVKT
# Chain of Flt1 (P17948 27-1338): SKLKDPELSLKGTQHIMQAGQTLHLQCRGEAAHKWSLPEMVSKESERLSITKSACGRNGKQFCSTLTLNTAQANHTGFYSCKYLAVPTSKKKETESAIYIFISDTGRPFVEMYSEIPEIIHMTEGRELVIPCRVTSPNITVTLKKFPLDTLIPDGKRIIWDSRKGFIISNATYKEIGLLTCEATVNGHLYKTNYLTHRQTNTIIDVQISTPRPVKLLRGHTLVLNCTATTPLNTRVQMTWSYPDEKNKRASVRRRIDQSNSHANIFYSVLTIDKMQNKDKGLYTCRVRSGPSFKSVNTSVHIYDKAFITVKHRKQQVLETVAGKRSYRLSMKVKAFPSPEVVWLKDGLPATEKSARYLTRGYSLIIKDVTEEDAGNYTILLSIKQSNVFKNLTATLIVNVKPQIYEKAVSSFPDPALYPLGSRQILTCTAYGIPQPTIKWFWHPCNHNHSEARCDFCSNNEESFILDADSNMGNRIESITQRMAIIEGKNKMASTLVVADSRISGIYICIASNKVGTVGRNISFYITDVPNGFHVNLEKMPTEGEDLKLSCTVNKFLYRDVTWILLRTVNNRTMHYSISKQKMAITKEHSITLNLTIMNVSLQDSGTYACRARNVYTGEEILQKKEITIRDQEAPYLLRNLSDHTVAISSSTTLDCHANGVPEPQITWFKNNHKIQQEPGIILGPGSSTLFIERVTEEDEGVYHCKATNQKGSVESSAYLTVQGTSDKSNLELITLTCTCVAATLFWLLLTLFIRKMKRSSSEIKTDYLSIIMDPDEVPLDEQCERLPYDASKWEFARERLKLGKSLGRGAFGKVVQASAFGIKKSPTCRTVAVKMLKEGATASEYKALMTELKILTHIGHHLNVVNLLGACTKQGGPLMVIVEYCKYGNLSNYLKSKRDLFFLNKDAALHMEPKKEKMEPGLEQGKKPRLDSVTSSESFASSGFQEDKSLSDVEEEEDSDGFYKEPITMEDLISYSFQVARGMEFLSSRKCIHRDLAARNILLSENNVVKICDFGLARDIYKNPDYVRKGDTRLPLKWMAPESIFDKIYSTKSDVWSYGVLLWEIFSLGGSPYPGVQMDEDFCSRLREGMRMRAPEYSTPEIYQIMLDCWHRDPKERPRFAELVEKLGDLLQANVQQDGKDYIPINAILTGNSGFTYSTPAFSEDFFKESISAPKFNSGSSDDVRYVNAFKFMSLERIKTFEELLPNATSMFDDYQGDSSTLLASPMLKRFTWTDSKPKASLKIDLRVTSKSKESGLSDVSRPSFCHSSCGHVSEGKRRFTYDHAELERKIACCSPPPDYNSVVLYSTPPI
# Chain of EGFR(L861Q)(h) (P00533 25-1210 L861Q): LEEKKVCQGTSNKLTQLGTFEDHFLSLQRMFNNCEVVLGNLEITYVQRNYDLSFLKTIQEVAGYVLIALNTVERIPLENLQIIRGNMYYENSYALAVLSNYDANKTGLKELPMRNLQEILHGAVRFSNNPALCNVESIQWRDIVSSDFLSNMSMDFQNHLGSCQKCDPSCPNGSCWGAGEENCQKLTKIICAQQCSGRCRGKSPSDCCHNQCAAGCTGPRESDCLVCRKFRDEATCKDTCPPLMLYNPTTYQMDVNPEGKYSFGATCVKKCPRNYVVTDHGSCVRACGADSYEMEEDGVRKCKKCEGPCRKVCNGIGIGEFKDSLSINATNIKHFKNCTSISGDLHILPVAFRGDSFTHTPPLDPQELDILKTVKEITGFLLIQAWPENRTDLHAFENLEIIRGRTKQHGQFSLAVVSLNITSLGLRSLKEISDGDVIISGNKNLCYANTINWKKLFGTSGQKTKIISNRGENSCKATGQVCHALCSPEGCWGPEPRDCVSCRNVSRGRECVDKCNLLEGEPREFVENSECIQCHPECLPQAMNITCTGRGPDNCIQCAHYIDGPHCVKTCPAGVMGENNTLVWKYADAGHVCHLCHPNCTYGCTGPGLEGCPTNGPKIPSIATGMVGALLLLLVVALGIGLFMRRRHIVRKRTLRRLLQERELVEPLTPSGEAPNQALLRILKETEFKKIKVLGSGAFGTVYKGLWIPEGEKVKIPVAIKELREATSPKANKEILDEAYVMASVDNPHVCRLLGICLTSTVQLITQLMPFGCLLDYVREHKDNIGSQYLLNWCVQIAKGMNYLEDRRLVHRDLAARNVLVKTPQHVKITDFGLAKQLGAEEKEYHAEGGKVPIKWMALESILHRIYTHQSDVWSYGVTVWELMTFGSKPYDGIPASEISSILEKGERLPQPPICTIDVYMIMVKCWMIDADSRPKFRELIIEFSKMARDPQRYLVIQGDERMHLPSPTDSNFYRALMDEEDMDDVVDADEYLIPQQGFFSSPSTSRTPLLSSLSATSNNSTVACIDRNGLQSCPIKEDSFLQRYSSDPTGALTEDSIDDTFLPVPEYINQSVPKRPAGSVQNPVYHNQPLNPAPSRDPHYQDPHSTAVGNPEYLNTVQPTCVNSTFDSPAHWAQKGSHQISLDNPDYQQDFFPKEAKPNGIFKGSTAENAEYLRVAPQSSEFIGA
# Chain of VRK2(h) (Q86Y07 whole entry): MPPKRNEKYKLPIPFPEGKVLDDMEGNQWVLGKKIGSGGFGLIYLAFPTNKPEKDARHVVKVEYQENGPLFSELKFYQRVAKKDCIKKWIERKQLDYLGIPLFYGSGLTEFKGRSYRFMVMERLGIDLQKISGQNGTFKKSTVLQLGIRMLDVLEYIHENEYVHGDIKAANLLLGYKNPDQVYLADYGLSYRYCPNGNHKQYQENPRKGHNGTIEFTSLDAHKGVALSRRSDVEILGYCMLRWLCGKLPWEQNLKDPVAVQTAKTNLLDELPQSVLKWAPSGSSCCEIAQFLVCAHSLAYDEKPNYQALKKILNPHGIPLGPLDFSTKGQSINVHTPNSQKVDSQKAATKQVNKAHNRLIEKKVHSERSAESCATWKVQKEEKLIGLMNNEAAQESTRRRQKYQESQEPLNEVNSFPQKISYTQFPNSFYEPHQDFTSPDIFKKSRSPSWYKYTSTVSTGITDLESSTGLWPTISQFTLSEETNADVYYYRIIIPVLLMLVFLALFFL
# Chain of EphB1 (P54762 18-984): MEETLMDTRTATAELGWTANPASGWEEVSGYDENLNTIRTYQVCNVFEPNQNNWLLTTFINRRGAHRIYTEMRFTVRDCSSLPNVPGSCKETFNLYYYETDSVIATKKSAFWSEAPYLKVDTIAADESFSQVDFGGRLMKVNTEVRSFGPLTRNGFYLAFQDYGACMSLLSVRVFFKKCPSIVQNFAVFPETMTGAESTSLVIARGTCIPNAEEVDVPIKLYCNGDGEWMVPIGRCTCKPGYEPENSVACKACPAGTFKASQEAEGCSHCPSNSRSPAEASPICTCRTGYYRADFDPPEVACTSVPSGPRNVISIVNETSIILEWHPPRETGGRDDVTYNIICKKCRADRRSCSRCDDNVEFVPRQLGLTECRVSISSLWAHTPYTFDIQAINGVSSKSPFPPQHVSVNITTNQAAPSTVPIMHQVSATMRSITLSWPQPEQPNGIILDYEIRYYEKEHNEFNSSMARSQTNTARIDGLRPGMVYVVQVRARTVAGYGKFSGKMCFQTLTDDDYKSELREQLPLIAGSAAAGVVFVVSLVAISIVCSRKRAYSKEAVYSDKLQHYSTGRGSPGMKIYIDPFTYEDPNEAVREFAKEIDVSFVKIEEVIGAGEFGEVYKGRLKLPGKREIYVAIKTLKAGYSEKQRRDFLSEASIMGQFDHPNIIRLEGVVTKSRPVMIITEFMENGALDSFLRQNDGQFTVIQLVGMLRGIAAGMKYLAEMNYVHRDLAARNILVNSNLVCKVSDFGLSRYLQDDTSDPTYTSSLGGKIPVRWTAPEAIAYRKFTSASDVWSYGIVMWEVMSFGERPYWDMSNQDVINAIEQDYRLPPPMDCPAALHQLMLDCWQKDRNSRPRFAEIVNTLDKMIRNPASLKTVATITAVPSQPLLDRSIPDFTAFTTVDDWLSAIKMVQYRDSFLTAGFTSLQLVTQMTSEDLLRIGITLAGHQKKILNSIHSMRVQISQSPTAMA
smiles,measurement,setting,value
Cc1ccc(NC(=O)c2cccc(C(F)(F)F)c2)cc1C#Cc1nn(C2CCN(C)CC2)c2ncnc(N)c12 [Compound 31],inhibition of angiogenesis (inter segmental vessels),[1],inhibit the angiogenesis of zebrafish significantly
same,pIC50,PC-3,5.40
Cc1ccc(NC(=O)c2ccc(C)c(C(F)(F)F)c2)cc1C#Cc1nn([C@H]2CC[C@H](O)CC2)c2ncnc(N)c12 [Compound 93],remaining activity at 10 µM,GRK5(h),99%
same,remaining activity at 10 µM,ALK6(h),18%
same,remaining activity at 10 µM,Abl (M351T)(h),0%
same,remaining activity at 10 µM,GRK7(h),101%
same,pIC50,PANC-1,5.30 to 5.77
same,remaining activity at 10 µM,"Flt1; Flt1(h), 10 μM, read-out: The percentage of the remaining active protein",3%
same,pIC50,"Flt1; Flt1, ATP at Km",7.82
same,remaining activity at 10 µM,"FGFR2; FGFR2(h), 10 μM, read-out: The percentage of the remaining active protein",0%
same,pIC50,"FGFR2; FGFR2, ATP at Km",7.40
same,remaining activity at 10 µM,EphB1,-1%
same,remaining activity at 10 µM,DYRK1B(h),92%
same,remaining activity at 10 µM,EGFR(L861Q)(h),0%
same,remaining activity at 10 µM,CaMKIIβ(h),85%
same,remaining activity at 10 µM,MST3(h),114%
same,remaining activity at 10 µM,VRK2(h),85%
same,remaining activity at 10 µM,CLK3(h),83%
same,remaining activity at 10 µM,Abl (H396P)(h),1%
same,remaining activity at 10 µM,LIMK1,5%
same,remaining activity at 10 µM,HIPK1(h),107%
same,remaining activity at 10 µM,PrKX(h),105%
same,pIC50,ZR-75-1,~5.00
same,remaining activity at 10 µM,DCAMKL3(h),101%
same,remaining activity at 10 µM,ALK4(h),79%
same,remaining activity at 10 µM,PTK5,1%
same,remaining activity at 10 µM,PRAK(h),77%
same,remaining activity at 10 µM,Fgr,2%
same,remaining activity at 10 µM,PI3KC2a(h),92%
same,remaining activity at 10 µM,ROCK-II(r),85%
same,remaining activity at 10 µM,Abl(Y253F)(h),0%
